Values quoted from earlier work in patent US9579328B2, “Prostaglandin and vasoconstrictor pharmaceutical compositions and methods of use” (ALLERGAN, INC., priority 2012, dated 2017).
Read-outs that look alike come from different tables or passages of the source.

Assays:
[1] = system: patients with glaucoma or ocular hypertension; conditions: cited from earlier work
[2] = system: palpebral conjunctiva of Beagle dogs; conditions: n = 6 per group, left eye, cited from earlier work
[3] = system: palpebral conjunctiva of Dutch-Belted (pigmented) rabbits; conditions: left eye, Bimatoprost 0.03% b.i.d. one month, n = 19; cited from earlier work
[4] = system: lower palpebral conjunctiva of rabbits, dogs, and non-human primates; conditions: cited from earlier work
[5] = system: rabbit isolated jugular veins; conditions: cited from earlier work
[6] = system: human cultured conjunctiva-derived epithelial cells; conditions: cited from earlier work
[7] = non-human primate, after single or multiple topical bimatoprost dosing; cited from earlier work
[8] = system: bulbar conjunctiva of patients; conditions: bimatoprost 0.03% q.d. for 60 days; biopsies at day 7 and impression cytology; cited from earlier work
[9] = system: palpebral conjunctiva of Dutch-Belted (pigmented) rabbits; design: key: N = Tissues within normal histological limits; conditions: left eye, n = 20, cited from earlier work
[10] = system: conjunctiva of patients with primary open-angle glaucoma; conditions: cited from earlier work
[11] = system: palpebral conjunctiva of New Zealand White (albino) rabbits; conditions: left eye, n = 16, cited from earlier work
[12] = bimatoprost 0.001% q.i.d. topical ocular for one month
[13] = bimatoprost 0.01% q.i.d. topical ocular for one month
[14] = bimatoprost 0.1% q.i.d. topical ocular for one month
[15] = Bimatoprost 0.03% b.i.d. 6 months
[16] = Bimatoprost 0.03% q.d. 6 months
[17] = Bimatoprost 0.1% b.i.d. 6 months
[18] = Bimatoprost 0.001% q.i.d. one month
[19] = Bimatoprost 0.01% q.i.d. one month
[20] = Bimatoprost 0.1% q.i.d. one month

Question: Which “mean laser-flare photometry readings and mean changes from baseline” value ([1]; 1 year, bimatoprost 0.03% once or twice daily, timolol maleate 0.5% twice daily, subset of 310 patients) does the source give for CCNC(=O)CCC/C=C\C[C@@H]1[C@@H](/C=C/[C@@H](O)CCc2ccccc2)[C@H](O)C[C@@H]1O [Bimatoprost, bimatoprost] here?
Answer: no significant differences among the treatment groups

Question: What about the safety and tolerability ([1]; study extension to 2 years) of the same compound?
Answer: safe and well-tolerated

Question: What about the “Incidence of minimal-to-mild mononuclear cell infiltration in palpebral conjunctiva (number of animals with histopathologic findings), Lower Eyelid” value [2, 12] of the same compound?
Answer: 3

Question: And the “Incidence of minimal-to-mild mononuclear cell infiltration in palpebral conjunctiva (number of animals with histopathologic findings), Upper Eyelid” value [2, 12]?
Answer: 4

Question: And the “Incidence of minimal-to-mild mononuclear cell infiltration in palpebral conjunctiva (number of animals with histopathologic findings), Lower Eyelid” value [2, 13]?
Answer: 5

Question: And the “Incidence of minimal-to-mild mononuclear cell infiltration in palpebral conjunctiva (number of animals with histopathologic findings), Upper Eyelid” value [2, 13]?
Answer: 3

Question: And the “Incidence of minimal-to-mild mononuclear cell infiltration in palpebral conjunctiva (number of animals with histopathologic findings), Lower Eyelid” value [2, 14]?
Answer: 6

Question: What about the “Incidence of minimal-to-mild mononuclear cell infiltration in palpebral conjunctiva (number of animals with histopathologic findings), Upper Eyelid” value [2, 14] of the same compound?
Answer: 5

Question: And the “Incidence of mononuclear cell infiltration in palpebral conjunctiva, Lower Eyelid, Minimal/mild” value [3]?
Answer: 12 number of animals

Question: What about the “Incidence of mononuclear cell infiltration in palpebral conjunctiva, Lower Eyelid, Moderate” value [3] of the same compound?
Answer: 0 number of animals

Question: And the “Incidence of mononuclear cell infiltration in palpebral conjunctiva, Upper Eyelid, Minimal/mild” value [3]?
Answer: 6 number of animals

Question: And the “Incidence of inflammatory infiltrates above background, lower palpebral conjunctiva: number of animals with histopathologic findings (per total number of animals)” value ([4]; Dogs, Beagle, 1 month, 0.1% q.i.d. topical)?
Answer: 0 (6)

Question: And the “Incidence of inflammatory infiltrates above background, lower palpebral conjunctiva: number of animals with histopathologic findings (per total number of animals)” value ([4]; Monkeys, Cynomolgus, 12 months, 0.1% b.i.d. topical)?
Answer: 0 (60)

Question: What about the “Incidence of inflammatory infiltrates above background, lower palpebral conjunctiva: number of animals with histopathologic findings (per total number of animals)” value ([4]; Rabbits, Dutch-Belted, 1 month, 0.03% b.i.d. topical) of the same compound?
Answer: 0 (19)

Question: What about the “Incidence of inflammatory infiltrates above background, lower palpebral conjunctiva: number of animals with histopathologic findings (per total number of animals)” value ([4]; Rabbits, Dutch-Belted, 6 months, 0.1% b.i.d. topical) of the same compound?
Answer: 1 (20)

Question: What about the “Incidence of inflammatory infiltrates above background, lower palpebral conjunctiva: number of animals with histopathologic findings (per total number of animals)” value ([4]; Rabbits, New Zealand White, 1 month, 0.1% q.i.d. topical) of the same compound?
Answer: 0 (16)

Question: And the “compound-related findings in eyes of the animal species” value ([4]; multiple subclinical, clinical, and exaggerated doses)?
Answer: No compound-related findings of corneal toxicity, discomfort or irritation, or histopathological changes

Question: And the “in-life evaluations: treatment-related ocular surface inflammation” value ([4]; periods of up to one year exposure)?
Answer: no treatment-related ocular surface inflammation

Question: And the “response in the endothelium-denuded preparation” value ([5]; endothelium-denuded, histamine precontracted, bimatoprost)?
Answer: inactive

Question: And the EC50 ([5]; endothelium-intact jugular veins, 3 μM histamine precontracted, read-out: vasorelaxant response EC50)?
Answer: 3.98 µM

Question: What about the “direct stimulation of inflammatory pathways involving adhesion molecules or class II antigens” value ([6]; in vitro) of the same compound?
Answer: None of the drugs appeared to induce direct stimulation of inflammatory pathways

Question: What about the toxicity observed ([6]; primarily related to the concentration of benzalkonium chloride) of the same compound?
Answer: mild

Question: And the “concentrations found in ocular surface tissues” value [7]?
Answer: 10^−6-10^−5 molar equivalent

Question: What about the evidence of inflammation [8] of the same compound?
Answer: no evidence of inflammation

Question: What about the “Mononuclear cell infiltration in palpebral conjunctiva, Lower Eyelid” value [9, 15] of the same compound?
Answer: N

Question: And the “Mononuclear cell infiltration in palpebral conjunctiva, Upper Eyelid” value [9, 15]?
Answer: N

Question: What about the “Mononuclear cell infiltration in palpebral conjunctiva, Lower Eyelid” value [9, 16] of the same compound?
Answer: N

Question: What about the “Mononuclear cell infiltration in palpebral conjunctiva, Upper Eyelid” value [9, 16] of the same compound?
Answer: N

Question: And the “Mononuclear cell infiltration in palpebral conjunctiva, Lower Eyelid” value [9, 17]?
Answer: N

Question: What about the “Mononuclear cell infiltration in palpebral conjunctiva, Upper Eyelid” value [9, 17] of the same compound?
Answer: N

Question: What about the “eyes with signs of inflammatory cell margination or infiltration” value ([10]; bimatoprost 0.03% q.d. 2 to 4 weeks, eyes with hyperemia (2/9)) of the same compound?
Answer: 22%

Question: And the “eyes with vascular congestion” value ([10]; bimatoprost 0.03% q.d. 2 to 4 weeks, eyes with hyperemia (7/9))?
Answer: 78%

Question: And the “eyes that developed conjunctival hyperemia” value ([10]; bimatoprost 0.03% q.d. for 2 to 4 weeks)?
Answer: Nine of 13

Question: And the “Incidence of minimal-to-mild mononuclear cell infiltration in palpebral conjunctiva, Lower Eyelid” value [11, 18]?
Answer: 12 number of animals

Question: What about the “Incidence of minimal-to-mild mononuclear cell infiltration in palpebral conjunctiva, Upper Eyelid” value [11, 18] of the same compound?
Answer: 4 number of animals

Question: What about the “Incidence of minimal-to-mild mononuclear cell infiltration in palpebral conjunctiva, Lower Eyelid” value [11, 19] of the same compound?
Answer: 13 number of animals

Question: And the “Incidence of minimal-to-mild mononuclear cell infiltration in palpebral conjunctiva, Upper Eyelid” value [11, 19]?
Answer: 6 number of animals

Question: And the “Incidence of minimal-to-mild mononuclear cell infiltration in palpebral conjunctiva, Lower Eyelid” value [11, 20]?
Answer: 14 number of animals

Question: And the “Incidence of minimal-to-mild mononuclear cell infiltration in palpebral conjunctiva, Upper Eyelid” value [11, 20]?
Answer: 8 number of animals
